From US12042481B2, “Use of (1R,5S)-(+)-1-(naphthalen-2-yl)-3-azabicyclo[3.1.0]hexane in the treatment of conditions affected by monoamine neurotransmitters” (priority 2011, dated 2024) come the findings set out here.

One experiment has as its system dopamine transporters. The experiment can be described thus: Autoradiographic binding of [3H]β-CIT to dopamine transporters in juvenile rat brain after neonatal 6-OHDA lesioning. The class given is in vivo. To be noted: for specific binding of [3H]β-CIT to dopamine transporters, 6-OHDA Lesioned: mean ± SEM. On the procedure:
(§1) Methods of lesioning neonatal rats with 6-OHDA were carried out as detailed in Zhang et al. (2001). Briefly, on postnatal day 1 (PD 1), male Sprague-Dawley rat pups were randomly assigned to a nursing dam (10/dam). On PD 5, pups receive a subcutaneous injection of 25 mg/kg desipramine hydrochloride to protect noradrenergic neurons, followed in 45 min. by randomly assigned intracisternal injection of vehicle or 6-OHDA hydrobromide (100 μg free base) under hypothermic anesthesia. Pups were returned to nursing dams immediately after the intracranial injections. Locomotor activity was monitored individually for 90 min. in the periadolescent period on PD 25, using a microcomputer controlled infrared photobeam activity monitoring system. Locomotor activity was defined as breaking of consecutive photobeams and the activity accumulated in 5 minute bins. Behavioral testing was conducted in a novel environment (transparent plastic cages containing fresh bedding) within a grid of horizontal infrared beams. Each dose of (1R,5S)-(+)-1-(naphthalen-2-yl)-3-azabicyclo[3.1.0]hexane (1, 3 and 10 mg/kg) or methylphenidate (3 mg/kg) was dissolved in saline and given i.p. immediately prior to testing. The effects of sham versus 6-OHDA lesions on dopamine neurons in rats were quantified as decrements of DA transporters labeled with [31-1]2-(3-carbomethoxy-3-β-[4′-iodophenyl]tropane ([^3H]β-CIT), a selective DA transporter radioligand (Kula et al. 1999). Sections were preincubated (60 min., room temp [RT]) in 50 mM Tris-HCl buffer (pH 7.7) containing 120 mM NaCl and 4 mM MgCl2, then in fresh buffer (60 min) containing 2 nM [3H](3-CIT. Nonspecific binding was defined with 1 μM GBR-12909. Slides were then washed (2×5 min) in ice-cold buffer, dipped in ice-cold water, and air-dried. Radiolabeled slides and calibrated [^3H]standards were exposed to [^3H]sensitive films for 10-14 d at 4° C. Tritium-sensitive Hyperfilms were developed and fixed in Kodak D-19 for 5 min. at RT. Images were quantified with a computer-controlled MCID image analyzer. Brain regions of interest were outlined and their optical density was measured with two sections representing total binding, with two samples representing nonspecific binding. Optical density of sampled regions was measured and the amount of ligand bound within each area was calculated as nCi/mg tissue. Mean values of non-specific binding in each region were subtracted from the mean total binding to determine specific binding, which was converted into fmol/mg of radioligand bound.

The subject of experiment [1] is 6-OHDA-lesioned juvenile rats. The experiment can be described thus: Locomotor activity of juvenile rats with neonatal 6-OHDA lesions (model of ADHD). The class given is in vivo, rat. On the procedure: The behavioral effects of (1R,5S)-(+)-1-(naphthalen-2-yl)-3-azabicyclo[3.1.0]hexane were evaluated in a model of ADHD, which can be simulated in juvenile rates with neonatal 6-hydroxydopamine (6-OHDA) lesions (Davids et al., 2003). In this animal model, the NE neurons are protected from the neurotoxic effects of 6-OHDA by pretreatment with the NE transporter inhibitor desipramine, so the NE system is largely intact and can respond to NE transporter inhibitors (Davids et al., 2002). Furthermore, the 6-OHDA lesions produce learning and memory deficits in learning models including the T maze, and active and passive avoidance tasks (Shaywitz et al., 1978; Wool et al., 1987; Takasuna and Iwasaki, 1996). Performance in these learning and memory models was improved by administration of stimulants (Shaywitz et al., 1978; Wool et al., 1987). Thus, this model incorporates both hyperactivity and learning deficits found in ADHD.
as §1

On to `NCCc1cc(O)c(O)cc1O` [6-OHDA, 6-hydroxydopamine], for which the results for the “% Sham Lesion, binding of [3H]β-CIT” value in the experiment on dopamine transporters (lateral caudate-putamen), in the experiment with dopamine transporters (medial caudate-putamen) and in the experiment on dopamine transporters (nucleus accumbens septi) were 25.7%, 22.2% and 32.2%, respectively. The “specific binding of [3H]β-CIT to dopamine transporters, 6-OHDA Lesioned” value in the experiment on dopamine transporters (lateral caudate-putamen) was found to be 30.9 ± 2.4 fmol/mg tissue; in the experiment on dopamine transporters (medial caudate-putamen), 24.9 ± 3.5 fmol/mg tissue; in the experiment with dopamine transporters (nucleus accumbens septi), 22.8 ± 1.8 fmol/mg tissue. Also, the cumulative locomotor score in experiment [1] (6-OHDA-lesioned rats, PD 25, 90 minute testing period) was determined as 2758±3.0. Also, the “fold difference of cumulative locomotor score versus sham-lesioned rats” value in experiment [1] (PD 25, 90 minute testing period, p<0.001) came to 9 fold.

For `COC(=O)C(c1ccccc1)C1CCCCN1` (stereo not shown) [methylphenidate, reference compound], in experiment [1] (6-OHDA-lesioned juvenile rats at PD25, p<0.05 versus vehicle), the “locomotor activity (FIGS. 7A and 7B)” value is listed as “reduced locomotor activity”. Moreover, the “time over which locomotor activity was significantly attenuated” value in experiment [1] (methylphenidate 3 mg/kg i.p., PD 25, 90 min test) was found to be 90 min.
